Experimental data reported in US10414734B2, “5-hydroxyalkylbenzimidazoles as mIDH1 inhibitors” (BAYER PHARMA AKTIENGESELLSCHAFT, priority 2015, dated 2019).

How the values were obtained:
IDH1 R132H enzyme = IDH1 R132H enzyme (Homo sapiens (Human), UniProt O75874, R132H); assay: Mutant IDH1 R132H biochemical assay; details: luminescent NADPH consumption readout; 1.5 nM enzyme, 1 μM NADPH, 250 μM α-KG, 30 min, 32° C.
Description: Mutant IDH1 R132H Biochemical Assay
mIDH1 catalyzes the NADPH-dependent reduction of alpha-ketoglutarate (α-KG) to (2R)-2-hydroxyglutarate (2-HG). NADPH consumption was measured by luminescent readout.
The biochemical reactions were performed at 32° C. in 384-well plates using a reaction volume of 41 μL and the following assay buffer conditions: 50 mM Tris pH 7.5, 100 mM NaCl, 20 mM MgCl2, 0.05% BSA, 0.01% Brij, 1 μM NADPH, and 250 μM α-KG. The IDH1 R132H enzyme was used in a final concentration of 1.5 nM. Test compounds were used in a concentration range between 0.002 and 10 μM. The final DMSO concentration was 2.4%.
The reaction was incubated for 30 minutes, then 40 μL of detection mix (0.75 μg/ml Luciferase, 0.02 U/ml Oxidoreductase, 4 μg/mL FMN, 2 μL/ml decanal/ethanol, 50 mM Tris pH 7.5, 0.5% Glycerin, 0.01% Tween-20, 0.05% BSA) was added. Luminescence was measured on a luminescent reader (10 seconds measuring time, 1 second integration period, 30% sensitivity). The decrease in luminescence is proportional to mIDH1 activity. IC50 values are determined by interpolation from plots of relative luminescence versus inhibitor concentration.

[1] = tested on: LN229 R132H cells overexpressing mutated isocitrate dehydrogenase (mIDH); assay: Mutant IDH1 cellular assay (2-HG in medium); assay type: cell-based; details: 2-HG in medium after 24 hours, fluorescence readout
Description: Mutant IDH1 Cellular Assay
Levels of (2R)-2-hydroxyglutarate (2HG) were measured in medium of a cell line with overexpression of mutated isocitrate dehydrogenase (mIDH) protein. mIDH catalyzes the NADPH-dependent reduction of alpha-ketoglutarate to 2-HG. Cells (LN229 R132H, Mohrenz et al., Apoptosis (2013) 18:1416-1425) were grown in DMEM containing 10% FCS. They were harvested by trypsin and seeded into 96-well plates. Cells were incubated overnight at 37° C. in 5% CO2. The next day test compounds were added to each cell well. The final concentration of DMSO was 0.1% and DMSO controls were included. The plates were then placed in an incubator for 24 hours.
2-HG was measured according to Balss et al. (Acta Neuropathol (2012) 124: 883-891). Briefly, perchloric acid was added to each well and the plates were centrifuged. Aliquots are removed and incubated with hydroxyglutarate dehydrogenase (HGDH), diaphorase, NAD+, and resazurin. The conversion of resazurin to resorufin was detected by fluorescence spectroscopy at Ex 540 nm Em 600 nm. The increase in fluorescence is proportional to 2-HG production. IC50 values are determined by interpolation from plots of relative fluorescence vs inhibitor concentration.

IDH1 R132H enzyme, sequence (O75874 whole entry R132H): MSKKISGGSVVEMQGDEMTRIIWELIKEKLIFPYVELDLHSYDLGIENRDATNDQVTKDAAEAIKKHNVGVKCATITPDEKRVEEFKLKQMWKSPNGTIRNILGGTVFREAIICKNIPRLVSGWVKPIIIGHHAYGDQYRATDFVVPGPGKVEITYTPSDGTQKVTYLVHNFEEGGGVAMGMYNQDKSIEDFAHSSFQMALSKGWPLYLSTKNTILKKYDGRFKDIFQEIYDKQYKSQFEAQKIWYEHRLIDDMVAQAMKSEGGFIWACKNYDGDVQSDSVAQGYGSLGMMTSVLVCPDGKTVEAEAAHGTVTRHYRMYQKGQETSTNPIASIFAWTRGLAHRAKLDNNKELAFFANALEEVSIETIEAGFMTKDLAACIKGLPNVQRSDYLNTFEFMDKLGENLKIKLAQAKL

Row | Structure (SMILES) | IC50 (IDH1 R132H enzyme) | IC50 [1] | IC50 ([1]; Homo sapiens, LN-229, 24 h)
1 | COc1cc2c(cc1CO)nc(Nc1ccc(OC(F)(F)F)cc1)n2[C@H]1C[C@@H](C)CC(C)(C)C1 (single isomer, unassigned; enantiomer a) [Example 2-6-1, (6-methoxy-2-{[4-(trifluoromethoxy)phenyl]amino}-1-[(cis)-3,3,5-trimethylcyclohexyl]-1H-benzimidazol-5-yl)methanol, enantiomer A] | 20 nM | 140 nM | –
2 | C[C@@H]1C[C@H](n2c(Nc3ccc(OC(F)(F)F)cc3)nc3cc(CO)ccc32)CC(C)(C)C1 (single isomer, unassigned; enantiomer a) [Example 2-1-1, (2-{[4-(trifluoromethoxy)phenyl]amino}-1-[(cis)-3,3,5-trimethylcyclohexyl]-1H-benzimidazol-5-yl)methanol, enantiomer A] | 50 nM | – | 1300 nM
3 | Cc1cc2c(cc1C(C)(C)O)nc(Nc1ccc(OC(F)(F)F)cc1)n2C1CC(C)(C)CC(C)(C)C1 [Example 2-4, 2-[6-methyl-1-(3,3,5,5-tetramethylcyclohexyl)-2-{[4-(trifluoromethoxy)phenyl]amino}-1H-benzimidazol-5-yl]propan-2-ol] | 30 nM | – | 550 nM
4 | COc1cc2c(cc1C(C)(C)O)nc(Nc1ccc(OC(F)(F)F)cc1)n2[C@H]1C[C@@H](C)CC(C)(C)C1 (single isomer, unassigned; enantiomer a) [Example 2-7-1, 2-(6-methoxy-2-{[4-(trifluoromethoxy)phenyl]amino}-1-[(cis)-3,3,5-trimethylcyclohexyl]-1H-benzimidazol-5-yl)propan-2-ol, enantiomer A] | 50 nM | 480 nM | –
5 | COc1cc2c(cc1C(C)(C)O)nc(Nc1ccc(OC(F)(F)F)cc1)n2[C@H]1C[C@@H](C)CC(C)(C)C1 (single isomer, unassigned; enantiomer b) [Example 2-7-2, 2-(6-methoxy-2-{[4-(trifluoromethoxy)phenyl]amino}-1-[(cis)-3,3,5-trimethylcyclohexyl]-1H-benzimidazol-5-yl)propan-2-ol, enantiomer B] | 20 nM | 90 nM | –
6 | C[C@@H]1C[C@H](n2c(Nc3ccc(OC(F)(F)F)cc3)nc3cc(C(C)(C)O)ccc32)CC(C)(C)C1 (single isomer, unassigned; enantiomer b) [Example 2-2-2, 2-(2-{[4-(trifluoromethoxy)phenyl]amino}-1-[(cis)-3,3,5-trimethylcyclohexyl]-1H-benzimidazol-5-yl)propan-2-ol, enantiomer B] | 40 nM | – | 500 nM
7 | COc1cc2c(cc1CO)nc(Nc1ccc(OC(F)(F)F)cc1)n2[C@H]1C[C@@H](C)CC(C)(C)C1 (single isomer, unassigned; enantiomer b) [Example 2-6-2, (6-methoxy-2-{[4-(trifluoromethoxy)phenyl]amino}-1-[(cis)-3,3,5-trimethylcyclohexyl]-1H-benzimidazol-5-yl)methanol, enantiomer B] | 110 nM | 630 nM | –
8 | Cc1cc2c(cc1[C@@H](O)C(F)(F)F)nc(Nc1ccc(OC(F)(F)F)cc1)n2C1CC(C)(C)CC(C)(C)C1 (racemic) [Example 2-5, (±) 2,2,2-trifluoro-1-[6-methyl-1-(3,3,5,5-tetramethylcyclohexyl)-2-{[4-(trifluoromethoxy)phenyl]amino}-1H-benzimidazol-5-yl]ethanol] | 30 nM | – | 800 nM
